From US10017497B2, “Pyrrolidine GPR40 modulators for the treatment of diseases such as diabetes” (BRISTOL-MYERS SQUIBB COMPANY, priority 2014, dated 2018)

Tests used:
[1] = target: T1, hGPR40 (Homo sapiens, UniProt O14842); assay: FDSS-based intracellular calcium assay (hGPR40 EC50); format: cell-based; set-up: 3xFLAG; expressed in transfected cells; settings: cells expressing GPR40, intracellular Ca2+ response, FDSS reader
Procedure: FDSS-Based Intracellular Calcium Assay
Cell lines expressing GPR40 are generated using the pDEST-3×FLAG gene expression system and are cultured in culture medium comprising the following components: F12 (Gibco #11765), 10% lipid deprived fetal bovine serum, 250 μg/mL zeocin and 500 μg/mL G418. To conduct the fluorescent imaging plate reader (FLIPR)-based calcium flux assay to measure intracellular Ca^2+ response, cells expressing GPR40 are plated on 384 well plates (BD Biocoat #356697) at a density of 20,000 cells/20 μL medium per well in phenol red and serum-free DMEM (Gibco #21063-029) and incubated overnight. Using BD kit #s 80500-310 or -301, the cells are incubated with 20 μL per well of Hank's buffered salt solution with 1.7 mM probenecid and Fluo-3 at 37° C. for 30 min. Compounds are dissolved in DMSO and diluted to desired concentrations with assay buffer and added to the cells as 3× solution (20 μL per well). Run fluorescence/luminescence reader FDSS (Hamamatsu) to read intracellular Ca^2+ response.

[2] = target: T1, hGPR40; assay: GPR40 IP-One HTRF assay in HEK293/GPR40 inducible cell lines (hGPR40 IP1 EC50); format: cell-based; set-up: expressed in transfected cells; settings: HEK293 cells with tetracycline-inducible human GPR40, IP-One HTRF
Procedure: GPR40 IP-One HTRF Assays in HEK293/GPR40 Inducible Cell Lines
Human, mouse and rat GPR40-mediated intracellular IP-One HTRF assays were established using human embryonic kidney HEK293 cells stably transfected with a tetracycline-inducible human, mouse or rat GPR40 receptor. Cells were routinely cultured in growth medium containing DMEM (Gibco Cat. #12430-047), 10% qualified FBS (Sigma, Cat. #F2442), 200 μg/mL hygromycin (Invitrogen, Cat. #16087-010) and 1.5 μg/mL blasticidin (Invitrogen, Cat. #R210-01). About 12-15 million cells were passed into a T175 tissue culture flask (BD Falcon 353112) with growth medium and incubated for 16-18 hours (overnight) at 37° C. with 5% CO2. The next day, assay medium was exchanged with growth medium containing 1000 ng/mL of tetracycline (Fluka Analytical, Cat. #87128) to induce GPR40 expression for 18-24 hours at 37° C. incubator with 5% CO2. After induction, the cells were washed with PBS (Gibco, Cat. #14190-036) and detached with Cell Stripper (Cellgro, Cat. #25-056-CL). 10-20 mL growth medium were added to the flask and cells were collected in 50 mL tubes (Falcon, Cat. #352098) and spun at 1000 RPM for 5 minutes. Culture medium was aspirated and the cells were resuspended in 10 mL of 1× IP-One Stimulation Buffer from the Cisbio IP-One kit (Cisbio, Cat. #62IPAPEJ). The cells were diluted to 1.4×10^6 cells/mL in Stimulation Buffer.
Test compounds were 3-fold, 11-point serially diluted in DMSO in a REMP assay plate (Matrix Cat. #4307) by Biocel (Agilent). The compounds were transferred into an Echo plate (Labcyte, Cat. #LP-0200) and 20 nL of diluted compounds were transferred to an assay plate (proxi-plate from Perkin Elmer, Cat. #6008289) by Echo acoustic nano dispenser (Labcyte, model ECHO550). 14 μL of the diluted cells were then added to the assay plate by Thermo (SN 836 330) Combi Drop and incubated at room temperature for 45 minutes. Then 3 μL of IP1 coupled to dye D2 from the Cisbio IP-One kit were added to the assay plate followed by 3 μL of Lumi4-Tb cryptate K from the kit. The plate was further incubated at room for 1 hour before reading on the Envision (Perkin Elmer Mode12101) with an HTRF protocol. Activation data for the test compound over a range of concentrations was plotted as percentage activation of the test compound (100%=maximum response). After correcting for background [(sample read-mean of low control)/(mean of high control-mean of low control)](low control is DMSO without any compound), EC50 values were determined. […] The maximal Y value observed (% Ymax) was calculated relative to a BMS standard reference compound at a final concentration of 0.625 μM.

T1 sequence (O14842 whole entry): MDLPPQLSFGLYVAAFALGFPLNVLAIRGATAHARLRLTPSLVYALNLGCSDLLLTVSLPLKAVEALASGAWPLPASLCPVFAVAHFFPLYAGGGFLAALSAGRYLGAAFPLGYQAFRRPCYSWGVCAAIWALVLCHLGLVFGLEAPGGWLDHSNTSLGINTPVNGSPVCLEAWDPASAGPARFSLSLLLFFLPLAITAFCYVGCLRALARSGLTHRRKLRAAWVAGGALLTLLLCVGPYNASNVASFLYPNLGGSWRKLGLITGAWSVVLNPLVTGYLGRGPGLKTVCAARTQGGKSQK

COc1cc(N2CC[C@@H](Oc3cnc(N4C[C@H](OC)[C@@H](C)[C@@H]4CC(=O)O)cn3)[C@H](C)C2)c(Cl)cn1 [Example 1, 2-((2S,3S,4R)-1-(5-((3R,4R)-1-(5-Chloro-2-methoxypyridin-4-yl)-3-methylpiperidin-4-yloxy)pyrazin-2-yl)-4-methoxy-3-methylpyrrolidin-2-yl)acetic acid]
EC50 [1]: 0.072 µM | EC50 [2]: 0.014 µM

COCCCO[C@H]1CN(c2cnc(O[C@@H]3CCN(c4cc(OC)ncc4Cl)C[C@H]3C)cn2)[C@@H](CC(=O)O)[C@@H]1C [Example 2, 2-((2S,3S,4R)-1-(5-((3R,4R)-1-(5-Chloro-2-methoxypyridin-4-yl)-3-methylpiperidin-4-yloxy)pyrazin-2-yl)-4-(3-methoxypropoxy)-3-methylpyrrolidin-2-yl)acetic acid]
EC50 [1]: 0.043 µM | EC50 [2]: 0.004 µM

CCOc1ccc(F)c(N2CC[C@@H](Oc3cnc(N4C[C@H](OC)[C@@H](C)[C@@H]4CC(=O)O)cn3)[C@H](C)C2)c1 [Example 3, 2-((2S,3S,4R)-1-(5-((3R,4R)-1-(5-Ethoxy-2-fluorophenyl)-3-methylpiperidin-4-yloxy)pyrazin-2-yl)-4-methoxy-3-methylpyrrolidin-2-yl)acetic acid]
EC50 [1]: 0.042 µM | EC50 [2]: 0.021 µM

CCOc1ccc(F)c(N2CC[C@@H](Oc3cnc(N4C[C@H](OCCCOC)[C@@H](C)[C@@H]4CC(=O)O)cn3)[C@H](C)C2)c1 [Example 4, 2-((2S,3S,4R)-1-(5-((3R,4R)-1-(5-Ethoxy-2-fluorophenyl)-3-methylpiperidin-4-yloxy)pyrazin-2-yl)-4-(3-methoxypropoxy)-3-methylpyrrolidin-2-yl)acetic acid]
EC50 [1]: 0.045 µM

CCOc1ccc(F)c(N2CC[C@@H](Oc3cnc(N4CC(OCCCOC)C(C)C4CC(=O)O)cn3)[C@H](C)C2)c1 (stereo partly drawn) [Example 5, 2-(1-(5-(((3R,4R)-1-(5-Ethoxy-2-fluorophenyl)-3-methylpiperidin-4-yl)oxy)pyrazin-2-yl)-4-(3-methoxypropoxy)-3-methylpyrrolidin-2-yl)acetic acid]
EC50 [1]: 0.837 µM

COc1cc(N2CC[C@@H](Oc3cnc(N4C[C@H](OC)C[C@@H]4CC(=O)O)cn3)[C@H](C)C2)c(Cl)cn1 [Example 6, 2-((2R,4R)-1-(5-((3R,4R)-1-(5-Chloro-2-methoxypyridin-4-yl)-3-methylpiperidin-4-yloxy)pyrazin-2-yl)-4-methoxypyrrolidin-2-yl)acetic acid]
EC50 [1]: 0.15 µM | EC50 [2]: 0.044 µM

COc1cc(N2CC[C@@H](Oc3cnc(N4C[C@H](OC)C[C@H]4CC(=O)O)cn3)[C@H](C)C2)c(Cl)cn1 [Example 7, 2-((2S,4R)-1-(5-((3R,4R)-1-(5-Chloro-2-methoxypyridin-4-yl)-3-methylpiperidin-4-yloxy)pyrazin-2-yl)-4-methoxypyrrolidin-2-yl)acetic acid]
EC50 [1]: 3.23 µM

COc1cc(N2CC[C@@H](Oc3cnc(N4C[C@H](C(F)(F)F)C[C@H]4CC(=O)O)cn3)[C@H](C)C2)c(Cl)cn1 [Example 8, 2-((2S,4R)-1-(5-((3R,4R)-1-(5-Chloro-2-methoxypyridin-4-yl)-3-methylpiperidin-4-yloxy)pyrazin-2-yl)-4-(trifluoromethyl)pyrrolidin-2-yl)acetic acid]
EC50 [1]: 0.955 µM

COc1cc(N2CC[C@@H](Oc3cnc(N4C[C@H](C(F)(F)F)C[C@@H]4CC(=O)O)cn3)[C@H](C)C2)c(Cl)cn1 [Example 9, 2-((2R,4R)-1-(5-((3R,4R)-1-(5-Chloro-2-methoxypyridin-4-yl)-3-methylpiperidin-4-yloxy)pyrazin-2-yl)-4-(trifluoromethyl)pyrrolidin-2-yl)acetic acid]
EC50 [1]: 0.084 µM
